Experimental data as given in patent US20100119530A1, “Regulation of TLR Signaling by Complement” (priority 2007, published 2010).

Key:
C3a receptor (C3aR) = target: T1, C3a receptor (C3aR) (Mus musculus, UniProt O09047); assay: LPS-induced plasma IL-6 in DAF−/− mice treated with C3a receptor antagonist; type: in vivo; conditions: 30 mg/kg i.p. 30 minutes before LPS
T1 construct: Effect of a C3a receptor antagonist (C3aRa) and a C5a receptor antagonist (C5aRa) on LPS-induced plasma IL-6 levels in DAF^−/− mice; from tissue; host or cells: living C57BL/6 DAF-/- mice (whole animal)
T1 sequence (O09047 1-477): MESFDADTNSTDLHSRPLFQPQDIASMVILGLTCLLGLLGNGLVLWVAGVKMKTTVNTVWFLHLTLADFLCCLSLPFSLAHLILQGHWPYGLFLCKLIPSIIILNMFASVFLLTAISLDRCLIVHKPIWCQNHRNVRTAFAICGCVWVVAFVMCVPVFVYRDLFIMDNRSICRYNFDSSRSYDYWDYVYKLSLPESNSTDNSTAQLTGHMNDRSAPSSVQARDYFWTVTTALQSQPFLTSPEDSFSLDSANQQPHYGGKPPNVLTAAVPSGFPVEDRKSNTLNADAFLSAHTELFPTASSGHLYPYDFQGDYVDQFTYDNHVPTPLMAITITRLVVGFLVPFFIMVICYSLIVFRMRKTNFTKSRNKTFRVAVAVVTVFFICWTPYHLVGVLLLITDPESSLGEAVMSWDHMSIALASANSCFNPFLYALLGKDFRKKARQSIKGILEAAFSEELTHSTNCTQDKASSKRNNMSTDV
Experimental: (§1) Mice were injected with the following TLR ligands: LPS (20 mg/kg in PBS, i.p.), zymosan (1 g/kg in 0.9% saline, i.p.), CpG (20 mg/kg in PBS, i.p.). In some experiments, mice were also treated with CVF (15 U/mouse in saline, i.p.), SB290157 (30 mg/kg in 20% polyethylene glycol 400 in saline, i.p.), AcPhe (50 μg/mouse in PBS, i.p.). EDTA (20 mM) anti-coagulated blood samples were collected from the tail vein or vena cava. Plasma was prepared by centrifugation at 1000×g for 15 min at 4° C. and stored as small aliquots at −80° C.

C5a receptor (C5aR) = target: T2, C5a receptor (C5aR) (Mus musculus, UniProt P30993); assay: LPS-induced plasma IL-6 in DAF−/− mice treated with C5a receptor antagonist; type: in vivo; conditions: 50 μg/mouse i.p. 30 minutes before LPS
T2 construct: from tissue; host or cells: living mice (A4: C57BL/6 DAF-/-; A12: wild-type, with C5aR-/- mice as control)
T2 sequence (P30993 1-351): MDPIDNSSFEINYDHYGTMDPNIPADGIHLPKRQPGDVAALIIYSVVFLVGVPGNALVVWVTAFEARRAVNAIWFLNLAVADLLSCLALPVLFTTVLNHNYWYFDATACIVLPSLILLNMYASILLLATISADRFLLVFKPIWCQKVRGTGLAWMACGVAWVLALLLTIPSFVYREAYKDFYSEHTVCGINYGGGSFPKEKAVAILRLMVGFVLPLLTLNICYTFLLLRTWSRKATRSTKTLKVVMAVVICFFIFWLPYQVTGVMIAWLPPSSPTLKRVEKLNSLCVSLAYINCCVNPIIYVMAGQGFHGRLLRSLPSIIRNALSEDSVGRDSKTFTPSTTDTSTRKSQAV
Experimental: as §1

[1] = test system: LPS-induced cytokine production; assay: Serum cytokine concentrations in mice treated with TLR and/or complement activators; type: in vivo; conditions: mice co-treated with LPS and CVF
Experimental: A set of experiment was conducted to measure serum concentrations of cytokines in mice untreated (NT) or treated with TLR and/or complement activators. […] On the other hand, CVF reduced LPS-induced IL-12 production (FIG. 8). Thus, the effect of CVF on LPS-induced cytokine production is dependent on complement C3 and C5aR but not C3aR signaling.

TLR2/6 signaling = assay: Plasma cytokine ELISA in mice after zymosan or zymosan/CVF treatment; type: in vivo; conditions: wild-type mice co-treated with zymosan and CVF, 3 hours
Experimental: as §1

naive CD4 T cells = assay: Th-17 differentiation of purified naive CD4 T cells (anti-CD3/CD28) with cytokines or mouse sera, FACS; type: cell-based, mice; conditions: for Th-17 differentiation driven by serum of mice treated with the substance alone: naive CD4 T cells from wild-type mice, plate-bound anti-CD3 and CD28; for Effect of co-treatment on Th-17 differentiation driven by serum of LPS-treated mice: serum of mice co-treated with LPS and the substance; for Th-17 differentiation, cytokine alone: cells treated with the cytokine alone
Text: To test whether the CVF-augmented inflammatory cytokine production promotes Th-17 differentiation, purified naive CD4 T cells from wild-type mice were stimulated in vitro with plate-bound anti-CD3 and CD28 in the presence of specific cytokines or sera of control (naive mouse) or LPS-, CVF-treated mice. […] The augmenting effect of CVF on LPS-dependent Th-17 differentiation required C3 and C5aR but not C3aR.
The ability of C5a-induced augmentation of serum inflammatory cytokine production to promote Th-17 differentiation was assessed. Purified naive CD4 T cells from wild-type mice were stimulated in vitro with plate-bound anti-CD3 and CD28 in the presence of specific cytokines or sera of control (naive mouse) or LPS-, C5a-treated mice. […] Treatment of the cells with IL-6 alone or TGF-β alone had no effect on Th-17 differentiation. […] Thus the augmenting effect of C5a on LPS-dependent Th-17 differentiation required C5aR. These findings indicate that complement activation products, particularly C5a, synergize with the TLR activation pathway to augment inflammatory cytokine production. The complement system, through interaction with TLR, augments Th-17 differentiation and therefore plays a role in autoimmune tissue injury. FIGS. 8-11 provide evidence for this conclusion. Thus, inhibiting complement activation is a therapeutic approach for treating Th-17 T cell mediated autoimmune diseases such as multiple sclerosis, Lupus, inflammatory bowel disease, GvHD and transplant rejection.

TLR4 signaling = assay: Plasma cytokine ELISA in mice after LPS, CVF or LPS/CVF treatment; type: in vivo; conditions: 3 hours; for Reduction of LPS-induced IL-12p40 by CVF treatment: LPS/CVF vs LPS
Experimental: as §1

TLR9 = assay: Plasma cytokine ELISA in mice after CpG, CVF or CpG/CVF treatment; type: in vivo; conditions: wild-type mice, CVF co-treatment with CpG
Experimental: as §1

C5aR [2] = target: T3, C5aR (Mus musculus, UniProt P30993); assay: Synergistic effect of C5a with LPS on serum IL-6 in mice; type: in vivo
T3 construct: from tissue; host or cells: living mice (A4: C57BL/6 DAF-/-; A12: wild-type, with C5aR-/- mice as control)
T3 sequence (P30993 1-351): T2 sequence (P30993 1-351)
Experimental: (§2) Next, the Synergistic effect of C5a with LPS in augmenting IL-6 production was tested. Instead of using the complement activator CVF, the complement activation product C5a was directly tested for its activity to synergize with LPS in IL-6 production. […] CVF treatment by itself has no effect on IL-6 production. Thus, the synergistic activity of C5a required C5aR as such an effect was not observed in C5aR^−/− mice (FIG. 10).

[3] = test system: C3 activation fragments (C3b/iC3b/C3c); assay: Complement activation assay (sandwich ELISA of plasma C3 activation fragments); type: in vivo; conditions: plasma samples of CpG-treated mice
Experimental: Levels of C3 activation fragments (C3b/iC3b/C3c) in plasma were measured by a sandwich ELISA. For quantification purposes, 1/500 serial dilutions of CVF-activated WT mouse plasma (prepared by adding 2.5 μg (1.2 units) of CVF to 50 μl plasma and incubating for 1 h at 37° C.) were used as a reference, and complement activation in all testing samples was normalized to this reference sample.

[4] = Measurement of plasma LPS levels (Pyrochrome Kit) after LPS injection; type: in vivo, mice; conditions: 3 hours after LPS injection (20 mg/kg i.p.), n=12
Experimental: as §1
Plasma LPS levels were determined using the Pyrochrome Kit from Associates of CAPE COD Incorporated (East Falmouth, Mass.). Plasma samples were treated at 70° C. for 10 minutes before assays to heat-inactivate serine proteases. Levels were expressed as units/ml of endotoxin.

[5] = test system: NF-kB luciferase reporter gene in RAW264.7 cells; assay: NF-kB luciferase reporter gene assay and TNF-α ELISA in transfected RAW 264.7 cells; type: cell-based, murine; conditions: transfected RAW264.7 cells
Text: RAW 264.7 cells were co-transfected with NF-kB Luc (Clontech, Palo Alto, Calif.), human C5aR in pcDNA3 (UMA cDNA resource center, Rolla, Mo.) and the Rellina control vector (Promega, Madison, Wis.) using the Amaxa Nucleofector apparatus (Amaxa Biosystems, Germany). The RAW 264.7 cells expressed detectible levels of endogenous C5aR as assessed by FACS and RT-PCR. After transfection, they also became weakly positive for human C5aR as assessed by FACS. […] Cell culture supernatants were collected for IL-6 and TNF-α assays by ELISA. All assays were performed in triplicates.

C5aR [6] = assay: Synergistic effect of C5a with LPS on serum IL-6 in mice; type: in vivo; conditions: C5aR−/− mice
Experimental: as §2

[7] = wild-type mice, CVF co-treatment with LPS
[8] = wild-type mice, CVF treatment alone

Molecule: NC(N)=NCCC[C@H](NC(=O)COCC(c1ccccc1)c1ccccc1)C(=O)O [SB 290157]
- Effect on the increase in LPS-induced IL-6 production (C3a receptor (C3aR)): significantly (p<0.001) attenuated

Molecule: AcPhe
- Effect on the increase in LPS-induced IL-6 production (C5a receptor (C5aR)): totally blocked

Molecule: Cobra venom factor [CVF]
- Effect on LPS-induced IL-12 production [1]: reduced
- Effect on LPS-induced serum IL-1β [1]: augmented
- Effect on LPS-induced serum IL-6 [1]: augmented
- Effect on LPS-induced serum TNF-α [1]: augmented
- Effect on zymosan-induced IL-6 production (TLR2/6 signaling): Markedly increased
- Effect on zymosan-induced IL-12p40 production (TLR2/6 signaling): decreased
- Th-17 differentiation driven by serum of mice treated with the substance alone (naive CD4 T cells): unable to drive Th-17 differentiation
- Effect of co-treatment on Th-17 differentiation driven by serum of LPS-treated mice (naive CD4 T cells): strongly augmented
- Reduction of LPS-induced IL-12p40 by CVF treatment (TLR4 signaling; IL-10−/− mice): 22%
- Plasma IL-10 level (TLR4 signaling; LPS/CVF-treated wild-type mice compared with LPS- or CVF-treated wild-type mice): strikingly elevated
- Effect on LPS-induced plasma IL-6 (TLR4 signaling; [7]): greatly increased
- Effect on LPS-induced plasma IL-12p40 (TLR4 signaling; [7]): decreased
- Effect on IL-6 production (TLR4 signaling; [8]): negligible effect
- Effect on IL-12p40 production (TLR4 signaling; [8]): negligible effect
- Reduction of LPS-induced IL-12p40 by CVF treatment (TLR4 signaling; wild-type mice): 87%
- Effect on CpG-induced IL-1β production (TLR9): no significant impact
- Effect on CpG-induced TNF-α production (TLR9): no significant impact
- Effect on CpG-induced IL-6 production (TLR9; 3 hours): no significant impact
- Effect on CpG-induced IL-12p40 production (TLR9; 3 hours): markedly suppressed
- Serum IL-6 level (C5aR [2]; mice co-treated with LPS, compared with LPS alone): greatly elevated
- Effect on IL-6 production (C5aR [2]; treatment by itself, without LPS): no effect

Molecule: CpG 1826 (5′-TCCATGACGTFCCTGACGTT-3′)
- Complement activation in plasma [3]: detectable complement activation

Molecule: TGF-β
- Th-17 differentiation, cytokine alone (naive CD4 T cells): no effect

Molecule: lipopolysaccharide [LPS]
- Th-17 differentiation driven by serum of mice treated with the substance alone (naive CD4 T cells): active in driving Th-17 differentiation
- Plasma LPS concentration ([4]; DAF−/− mice): 1200±307 EU/ml
- Plasma LPS concentration ([4]; wild-type mice): 925±413 EU/ml

B1: C5a: recombinant human C5a from Sigma-Aldrich; complement activation product, anaphylatoxin (protein, UniProt P01031 678-751, looked up)
C5a anaphylatoxin: TLQKKIEEIAAKYKHSVVKKCCYDGACVNNDETCEQRAARISLGPRCIKAFTECCVVASQLRANISHKDMQLGR
modifications: C5a anaphylatoxin
- Secretion of endogenous TNF-α ([5]; C5a (50 nM) with LPS (1000 ng/ml) per FIG. 4D legend): synergized with LPS
- Secretion of endogenous TNF-α ([5]; C5a alone): negligible effect on its own
- Th-17 differentiation driven by serum of mice treated with the substance alone (naive CD4 T cells): unable to drive Th-17 differentiation
- Effect of co-treatment on Th-17 differentiation driven by serum of LPS-treated mice (naive CD4 T cells): strongly augmented
- Synergistic effect with LPS on IL-6 production (C5aR [6]): not observed

B2: IL-6: cytokine added to naive CD4 T cell cultures to drive Th-17 differentiation (protein, UniProt P08505 25-211, looked up)
Interleukin-6: FPTSQVRRGDFTEDTTPNRPVYTTSQVGGLITHVLWEIVEMRKELCNGNSDCMNNDDALAENNLKLPEIQRNDGCYQTGYNQEICLLKISSGLLEYHSYLEYMKNNLKDNKKDKARVLQRDTETLIHIFNQEVKDLHKIVLPTPISNALLTDKLESQKEWLRTKTIQFILKSLEEFLKVTLRSTRQT
- Th-17 differentiation in the presence of TGF-β (naive CD4 T cells; IL-6 in the presence of TGF-β): differentiated into Th-17 cells
- Th-17 differentiation, cytokine alone (naive CD4 T cells): no effect
